Laboratory results from patent publication US11001591B2, “TRAF 6 inhibitors” (HELMHOLTZ ZENTRUM MUENCHEN—DEUTSCHES FORSCHUNGSZENTRUM FÜR …, priority 2016, dated 2021).
“Also recorded” adds a separate entry of the source. Read-outs that look alike come from different tables or passages of the source. Blank lines part the entries; values can stand above or below the compound they belong to.

Columns and labels:
TRAF6-Ubc13 binding = target: T1, TRAF6-Ubc13 binding (Homo sapiens, UniProt Q9Y4K3); experiment: Co-immunoprecipitation of HA-TRAF6 and endogenous Ubc13 in HEK 293T cells; assay type: cell-based
T1 construct: RING-Zincfinger1 (RZ1) domain (residues 50-159) of TRAF6 wildtype; expressed in transfected cells; host or cells: HEK 293T
T1 sequence (Q9Y4K3 50-159): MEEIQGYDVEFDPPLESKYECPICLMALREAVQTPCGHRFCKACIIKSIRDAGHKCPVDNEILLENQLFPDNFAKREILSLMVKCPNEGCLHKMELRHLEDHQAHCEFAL
Procedure: To study the interaction of TRAF6 and Ubc13 in cells, 1×10^6 293T cells were seeded and after 18 hours cells were transfected with lpg pEF-HA empty or pEF-HA-TRAF6 RZ1 plasmid using the X-tremeGENE HP DNA transfection reagent (Roche). 6 hours upon transfection, cells were treated with compound or DMSO. After 42 hours further incubation, cells were harvested in Co-IP lysis buffer and HA-TRAF6 was immunoprecipitated with anti-HA affinity matrix (Roche). Binding of Ubc13 to TRAF6 was examined in Western Blot analysis.

TRAF6-UBC13 interaction = target: T2, TRAF6-UBC13 interaction (Homo sapiens, UniProt Q9Y4K3); experiment: ALPHAScreen TRAF6WTStrepII-Ubc13FH interaction assay; assay type: binding
T2 construct: RING-Zincfinger1 (RZ1) domain (residues 50-159) of TRAF6 wildtype; made in house; host or cells: E. coli BL21 codon plus RIPL
T2 sequence (Q9Y4K3 50-159): T1 sequence (Q9Y4K3 50-159)
Description: In order to identify small molecules that specifically target the RZ1 domain of TRAF6 and thereby prevent its binding to Ubc13, the ALPHAScreen technology (PerkinElmer) was chosen to detect TRAF6WTStrepII-Ubc13FH interaction in High-Throughput-Screenings as well as Structure Activity Relationship (SAR) analysis.
For performance of an automated ALPHAScreen assay, all following components were pre-diluted in ALPHAScreen buffer (1×PBS, 0.5% BSA, 0.01% Tween-20). First, the TRAF6 protein (end concentration 100 nM, 30 μL volume) was added to 384-well-opti-plates involving the MultiFlo dispensing system (BioTek) followed by transfer of the compounds via the Sciclone G3 transfer station (PerkinElmer). After addition of Ubc13FH (end concentration 75 nM, 10 μL volume) with the MultiFlo system and incubation for one hour at room temperature, both beads (Strep-Tactin Alpha Donor beads and Nickel-Chelate acceptor beads; end concentrations 4 μg each, 10 μL volume each) were mixed and added using the MultiFlo system in subdued light. Read-out of the plates occurred after another hour of incubation at room temperature. Statistical parameters including the coefficient of variation, Z′ factor and signal window were calculated to determine the quality of the HTS campaign. To evaluate the efficacy of the compounds, ALPHAScreen units of compound-treated samples were referred to DMSO control treated samples. Thereby, the TRAF6D57K mutant served as the control for minimum signal and was included on every plate of the screening. Compounds that inhibited TRAF6WTStrepII-Ubc13FH by more than 25% were considered as actives. After elimination of ALPHAScreen frequent hitter compounds and His-tag frequent hitters (Schorpp, K., I. Rothenaigner, E. Salmina, et al., Identification of Small-Molecule Frequent Hitters from AlphaScreen High-Throughput Screens. J Biomol Screen, 2014. 19(5): p. 715-26), 178 compounds were defined as primary hits and were subsequently tested in five-point serial dilution assays (2.5-40 μM) in TRAF6WTStrepII-Ubc13FH ALPHAScreen experiments. Only compounds with dose-dependent effects on TRAF6WTStrepII-Ubc13FH (n=27) were taken for further research. For analog testing, all compounds were analyzed in ten-point titration (0.2-100 μM) in TRAF6WTStrepII-Ubc13FH ALPHAScreen experiments. In parallel, the compounds were tested in the ALPHAScreen TruHits Kit (PerkinElmer) to rule out unspecific interference with the ALPHAScreen technology.

SMILES: COc1cccc(CC2CCN(C(=O)CCc3c(C)nn(-c4ccc5nnc(C)n5n4)c3C)CC2)c1 [Compound 34, 3-(3,5-dimethyl-1-(3-methyl-[1,2,4]triazolo[4,3-b]pyridazin-6-yl)-1H-pyrazol-4-yl)-1-(4-(3-methoxybenzyl)piperidin-1-yl)propan-1-one]
- interaction of endogenous Ubc13 with ectopically expressed HA-TRAF6 (TRAF6-Ubc13 binding; listed as HZM06-8): active in cells; also recorded: most active analogs

SMILES: COc1cccc(CN2CCN(C(=O)CCc3c(C)nn(-c4ccc5nnc(C)n5n4)c3C)CC2)c1 [Compound 29, 3-(3,5-dimethyl-1-(3-methyl-[1,2,4]triazolo[4,3-b]pyridazin-6-yl)-1H-pyrazol-4-yl)-1-(4-(3-methoxybenzyl)piperazin-1-yl)propan-1-one]
- interaction of endogenous Ubc13 with ectopically expressed HA-TRAF6 (TRAF6-Ubc13 binding): active in cells

SMILES: Cc1nn(-c2ccc3nnc(C)n3n2)c(C)c1CCC(=O)N1CCN(Cc2ccc(F)cc2)CC1 [Compound 30, 3-(3,5-dimethyl-1-(3-methyl-[1,2,4]triazolo[4,3-b]pyridazin-6-yl)-1H-pyrazol-4-yl)-1-(4-(4-fluorobenzyl)piperazin-1-yl)propan-1-one]
- interaction of endogenous Ubc13 with ectopically expressed HA-TRAF6 (TRAF6-Ubc13 binding): active in cells

SMILES: Cc1nn(-c2ccc3nnc(C)n3n2)c(C)c1CCC(=O)N1CCC(c2ccccc2)CC1 [Compound 32, 3-(3,5-dimethyl-1-(3-methyl-[1,2,4]triazolo[4,3-b]pyridazin-6-yl)-1H-pyrazol-4-yl)-1-(4-phenylpiperidin-1-yl)propan-1-one]
- interaction of endogenous Ubc13 with ectopically expressed HA-TRAF6 (TRAF6-Ubc13 binding): active in cells

- inhibitory activity in ALPHAScreen (TRAF6-UBC13 interaction; serial dilution): most prominent effect
SMILES: Cc1nn(-c2ccc3nnc(C)n3n2)c(C)c1CCC(=O)N1CCC(Cc2ccccc2)C1 (centres unmarked) [Compound 31, 1-(3-benzylpyrrolidin-1-yl)-3-(3,5-dimethyl-1-(3-methyl-[1,2,4]triazolo[4,3-b]pyridazin-6-yl)-1H-pyrazol-4-yl)propan-1-one]
- interaction of endogenous Ubc13 with ectopically expressed HA-TRAF6 (TRAF6-Ubc13 binding; listed as HZM06-4): active in cells; also recorded: most active analogs

- interaction of endogenous Ubc13 with ectopically expressed HA-TRAF6 (TRAF6-Ubc13 binding): active in cells
SMILES: Cc1nn(-c2ccc3nnc(C)n3n2)c(C)c1CCC(=O)N1CCC(Cc2ccccn2)CC1 [Compound 36, 3-(3,5-dimethyl-1-(3-methyl-[1,2,4]triazolo[4,3-b]pyridazin-6-yl)-1H-pyrazol-4-yl)-1-(4-(pyridin-2-ylmethyl)piperidin-1-yl)propan-1-one]

SMILES: Cc1nn(-c2ccc3nnc(C)n3n2)c(C)c1CCC(=O)N1CCN(Cc2ccccc2)CC1 [Compound 28, 1-(4-benzylpiperazin-1-yl)-3-(3,5-dimethyl-1-(3-methyl-[1,2,4]triazolo[4,3-b]pyridazin-6-yl)-1H-pyrazol-4-yl)propan-1-one]
- interaction of endogenous Ubc13 with ectopically expressed HA-TRAF6 (TRAF6-Ubc13 binding): active in cells

SMILES: Cc1nn(-c2ccc3nnc(C)n3n2)c(C)c1CCC(=O)N1CCC(Cc2ccc(F)cc2)CC1 [Compound 35, 3-(3,5-dimethyl-1-(3-methyl-[1,2,4]triazolo[4,3-b]pyridazin-6-yl)-1H-pyrazol-4-yl)-1-(4-(4-fluorobenzyl)piperidin-1-yl)propan-1-one]
- interaction of endogenous Ubc13 with ectopically expressed HA-TRAF6 (TRAF6-Ubc13 binding; listed as HZM06-9): active in cells; also recorded: most active analogs

- inhibition at 100 µM (TRAF6-UBC13 interaction; inhibition of TRAF6-UBC13 interaction, read-out: IC50 Alphascreen): ≥ 30%
SMILES: Cc1nn(-c2ccc3nnc(C)n3n2)c(C)c1CCC(=O)NCc1ccccc1F [Compound 26, 3-(3,5-dimethyl-1-(3-methyl-[1,2,4]triazolo[4,3-b]pyridazin-6-yl)-1H-pyrazol-4-yl)-N-(2-fluorobenzyl)propanamide]

SMILES: Cc1nn(-c2ccc3nnc(C)n3n2)c(C)c1CCC(=O)N1CCC(c2ccccn2)CC1 [Compound 33, 3-(3,5-dimethyl-1-(3-methyl-[1,2,4]triazolo[4,3-b]pyridazin-6-yl)-1H-pyrazol-4-yl)-1-(4-(pyridin-2-yl)piperidin-1-yl)propan-1-one]
- interaction of endogenous Ubc13 with ectopically expressed HA-TRAF6 (TRAF6-Ubc13 binding; listed as HZM06-7): active in cells; also recorded: most active analogs
